Measurements reported in US20090137544A1 (priority 2006, published 2009).
Like-named read-outs stand apart in the source and are kept apart here.

Tests used:
[1] = system: zebra fish embryos; assay: Cholesterol microinjection rescue of alcohol-exposed embryos; assay type: in vivo; settings: 48 hpf
Procedure: (§1) Embryos were microinjected at 1-2 cell stage with 0.2 nl of 5 μg μl^−1 ([…]) cholesterol (BioVision Inc.) with or without the two plasmids for the Gli-luciferase reporter assay. […] At 48 hpf embryos were analyzed.

[2] = system: Hh-responsive Gli-BS luciferase reporter; assay: Gli-luciferase reporter assay in embryos; assay type: in vivo, zebra fish
Procedure: The Gli-luciferase reporter assay was performed in replicate experiments of pooled embryos (n=15). Briefly, zebra fish embryos at the 1-2 cell stage were microinjected with 0.5 nl of Gli-BS-Firefly luciferase plasmid (60 ng nl^−1) and Renilla luciferase plasmid (60 ng nl^−1, pRL-TK, Promega). Reporter activity was determined by using the Dual-Luciferase Reporter Assay System (Promega). Activity of the Firefly luciferase reporter was normalized to the activity of a Renilla luciferase internal control for transfection efficiency.
as §1

[3] = system: Hedgehog signaling activity; assay: Gli-luciferase reporter assay in rat hepatic stellate cell line; assay type: cell-based; settings: for CONCENTRATION REGION restoring Hedgehog signaling activity / PREFERRED CONCENTRATION restoring Hedgehog signaling activity: alcohol-treated hepatic stellate cells; for efficacy order on hedgehog signaling: fish and rat liver cell line
Procedure: The Gli-luciferase reporter assay was performed in duplicated experiments of a rat hepatic stellate cell line, […]. Briefly, […] cells, were grown in DMEM medium supplemented with 10% fetal bovine serum and penicillin and streptomycin (100 U/ml). At 40-50% confluency, cells were transfected with Gli-BS-Firefly luciferase plasmid (60 ng nl^−1) and Renilla luciferase plasmid ([…], pRL-TK, Promega) (concentration ratio 10:1) by using FuGENE 6 Transfection Reagent (Roche Applied Science). […] Two hours later, the medium was added to different drugs (20α-OHC, 22(S)-OHC, 25-OHC and cholesterol). After 16 hrs, the cells were washed three times in ice-cold PBS, and then were assayed by Dual/Luciferase Reporter Assay System (Promega). Activity of the Firefly luciferase reporter was normalized to the activity of a Renilla luciferase internal control for transfection efficiency.

[4] = system: zebra fish embryos; settings: 2.0% alcohol for 6 hours from 4.3 hpf, no supplement; 72 hpf
[5] = system: Shh secretion; settings: 3 hours, HSC 8B cells, Elisa
Procedure: Applicant analyzed proteins collected from the HSC 8B culture medium for Shh ligand content using two independent methods: Western blot analysis and Elisa assay. […] The cultures were incubated for an additional 3 hours, and culture medium was then harvested and concentrated for protein isolation.

[6] = system: Shh target genes Ptc, Gli1, Nkx2.2; settings: real-time quantitative PCR
Procedure: Total RNA was extracted from embryos (n=10) with RNeasy kits (Qiagen). RT-PCR were performed using primers (information listed in following table) as previously described.^52

[7] = system: zebra fish embryos; assay: Zebra fish embryo exposure to alcohol, cyclopamine or AY-9944: survival and phenotype; settings: for developmental malformations of treated embryos: transient treatment during gastrulation, alcohol 2%, cyclopamine 10.0 μM, AY-9944 7.5 μM
[8] = system: Caveolin-1/Shh complex; settings: alcohol 0.3, 0.5, 0.6, 0.8% w/v for 2 hours
Text: First, as described in FIG. 6, cellular proteins isolated by non-ionic detergent resistant cellular extraction were fractionalized by density gradient ultracentrifugation. […] Fractions 7 through 9 from the density gradient were pooled and used in the immunoprecipitation assay.

[9] = chronic alcohol feeding versus both control groups, p<0.001
[10] = alcohol-exposed embryos
Text: Upon esterified reaction, then the cholesterol ester can be transported from the embryonic yolk to the body. […] The fluorescent molecule, Filipin can selectively bind to free cholesterol, but not cholesterol ester; in other hand, the dye of oil red O identifies neutral lipids molecules such as cholesterol ester, but not polarized free cholesterol. First, applicant quantitatively analyzed the free cholesterol by whole mount in situ filipin staining.

[11] = system: Shh
[12] = alcohol exposure during gastrulation, dose-related
Procedure: Cholesterol content was then measured by the Arnplex Red Cholesterol Assay Kit (Invitrogen).

[13] = system: Shh; settings: 0.6% alcohol (w/v, 109 mM) for 30 minutes
[14] = system: Shh; settings: alcohol-exposed embryos, Western blot
Text: Total cellular protein was isolated as previously described^51 and cell membrane proteins were isolated using the Mem-PER(r) Eukaryotic Membrane Protein Extraction Reagent Kit (Pierce Biotechnology). Proteins (4o μg) in Laemmli buffer were then separated by 12% Tris-HCl SDS-polyacrylamide gel electrophoresis and transferred to a PVDF membrane. Membranes were blocked, washed, and exposed to primary antibodies (Santa Cruz Biotechnology) against Shh (N-19, Catalog number: sc-1194; dilution: 1:2.500) and β-actin (1:1.000). Signals were detected by Anti-goat HRP antibody (1:10.000, Amersham).

[15] = system: zebra fish embryos; settings: zebrafish, in vivo
[16] = system: Shh; remark: listed apart in the source

Compound: CC(C)CCC[C@@H](C)[C@H]1CC[C@H]2[C@@H]3CC=C4C[C@@H](O)CC[C@]4(C)[C@H]3CC[C@]12C [Cholesterol, 10,13-dimethyl-17-(6-methylheptan-2-yl)-2,3,4,7,8,9,11,12,14,15,16,17-dodecahydro-1H-cyclopenta[a]phenanthren-3-ol]
- embryos that appeared grossly normal ([1]; cholesterol-supplemented (10 pg), alcohol-exposed embryos): 94.8%
- Gli-BS reporter activity in cholesterol-supplemented, alcohol-exposed embryos ([2]; cholesterol 10 pg microinjected at 1-2 cell stage, various alcohol concentrations during gastrulation): preserved at all doses of alcohol exposure
- CONCENTRATION REGION restoring Hedgehog signaling activity [3]: 1 to 50 µM
- PREFERRED CONCENTRATION restoring Hedgehog signaling activity [3]: 1 to 20 µM
- efficacy order on hedgehog signaling [3]: efficacy order is 25-OHC, 22(S)-OHC, cholesterol, 20α-OHC and followed with squalene

Compound: CCO [Alcohol, ethanol]
- embryos developed relatively normal on gross morphology [4]: 15%
- decrease in Shh secretion ([5]; 0.3% (55 mM) alcohol): 1.2 fold
- decrease in Shh secretion ([5]; 0.6% (109 mM) alcohol): 4.2 fold
- decrease in Shh secretion ([5]; 0.8% (136 mM) alcohol): 5.5 fold
- change in expression of Ptc or Gli1 ([6]; 0.25% alcohol): no significant change
- decrease of Nkx2.2 expression ([6]; 0.25% alcohol): about 50%
- Shh transcription ([6]; alcohol concentrations higher than 1.0%): decreased
- embryos with FASD-like phenotypes ([1]; alcohol-exposed, unsupplemented embryos): 83.3%
- survival rate at 48 hpf ([7]; 0.25% alcohol for 6 h, late blastula-gastrula stage (second window)): over 90%
- embryos survived to 48 hpf ([7]; 0.25% alcohol, first exposure window (1 to 2 cell stages to 3 hpf)): < 40%
- embryos that failed to survive to 48 hpf ([7]; 0.25% alcohol, second exposure window): < 10%
- embryos survived through 48 hpf with abnormal morphology ([7]; 2% alcohol, second exposure window): 84%
- embryos for which exposure was lethal ([7]; 2% alcohol, second exposure window, 48 hpf): 13%
- amount of Caveolin-1 in the lipid raft fractions [8]: did not affect the amount of Caveolin-1
- amount of Shh in Caveolin-1 containing lipid raft fractions (fractions 7-9) [8]: decreased in an alcohol dose-dependent manner
- ratio of cholesterol ester to total cholesterol in plasma [9]: significantly decreased
- cholesterol ester (oil red O staining) in embryo yolk and body [10]: dramatic decrease of cholesterol ester in the embryonic yolk, with little or no change in its concentration in the embryonic body
- free cholesterol (filipin staining) in embryo body and yolk [10]: large decrease in cholesterol concentration in the embryonic body, but not in the embryonic yolk
- co-localization of Shh and lipid raft ([11]; alcohol 0.25% v/v for 5 minutes): disrupted
- Shh localization ([11]; alcohol 1% for one hour): almost all of the Shh protein was accumulated inside of the liver stellate cells
- Gli-BS luciferase activity in embryos ([2]; following alcohol exposure (0.25-2.0%)): decreased in a dose-related fashion
- total cholesterol content of the embryos [12]: decrease in the total cholesterol content
- Hedgehog signaling (Gli binding site derived luciferase activities) in hepatic stellate cells ([3]; alcohol 0.25, 0.5, 0.75 and 1.0% v/v versus no alcohol (A0)): decrease Hedgehog signaling activates
- density gradient distribution of Shh [13]: restricted to fractions 12 through 17
- Shh in cellular membrane protein fraction [14]: progressive loss of Shh from the cellular membrane protein fraction
- embryos alive at 48 hpf [15]: 10%
- embryos alive with minimal abnormalities at 48 hpf [15]: 18%
- embryos alive with normal phenotypes at 48 hpf [15]: 72.3%
- living embryos phenotypically normal at 48 hpf [15]: 2.6%
- Shh distribution pattern relative to ER marker ([16]; 0.6% (w/v) alcohol for one hour): diffuse, homogeneous distribution pattern
- punctate co-localized Caveolin-1/Shh particles ([16]; alcohol 0.4% and 0.8% (w/v) for thirty minutes): dramatically decreased in an alcohol dose dependent manner

Compound: CC1=C2C[C@H]3[C@@H](CC=C4C[C@@H](O)CC[C@@]43C)[C@@H]2CC[C@]12O[C@@H]1C[C@H](C)CN[C@H]1[C@H]2C [cyclopamine, 11-deoxojervine, reference compound]
- developmental malformations of treated embryos [7]: HPE and partial cyclopia, as well as underdevelopment of the craniofacial bones and muscles, and failure of the heart tube to loop

Compound: CC(C)CCC[C@](C)(O)[C@H]1CC[C@H]2[C@@H]3CC=C4C[C@@H](O)CC[C@]4(C)[C@H]3CC[C@@]21C [20α-Hydroxycholesterol, 20-hydroxycholesterol]
- CONCENTRATION REGION restoring Hedgehog signaling activity [3]: 0.1 to 100 µM
- PREFERRED CONCENTRATION restoring Hedgehog signaling activity [3]: 1 to 5 µM
- efficacy order on hedgehog signaling [3]: efficacy order is 25-OHC, 22(S)-OHC, cholesterol, 20α-OHC and followed with squalene

Compound: C[C@H](CCCC(C)(C)O)[C@H]1CC[C@H]2[C@@H]3CC=C4C[C@@H](O)CC[C@]4(C)[C@H]3CC[C@]12C [25-hydroxycholesterol, 5-cholestene-3b,25-diol]
- CONCENTRATION REGION restoring Hedgehog signaling activity [3]: 0.1 to 100 µM
- PREFERRED CONCENTRATION restoring Hedgehog signaling activity [3]: 5 to 15 µM
- efficacy order on hedgehog signaling [3]: efficacy order is 25-OHC, 22(S)-OHC, cholesterol, 20α-OHC and followed with squalene

Compound: 2,6,10,15,19,23-Hexamethyl-2,6,20,24,28,22-Tetracosahexaene [Squalene]
- CONCENTRATION REGION restoring Hedgehog signaling activity [3]: 0.1 to 100 µM
- PREFERRED CONCENTRATION restoring Hedgehog signaling activity [3]: 1 to 10 µM
- efficacy order on hedgehog signaling [3]: efficacy order is 25-OHC, 22(S)-OHC, cholesterol, 20α-OHC and followed with squalene

Compound: CC(C)CCC(O)[C@@H](C)[C@H]1CC[C@H]2[C@@H]3CC=C4C[C@@H](O)CC[C@]4(C)[C@H]3CC[C@]12C (stereo partly drawn) [22(S)-Hydroxycholesterol, 5-cholestene-3b,22-diol]
- CONCENTRATION REGION restoring Hedgehog signaling activity [3]: 0.1 to 100 µM
- PREFERRED CONCENTRATION restoring Hedgehog signaling activity [3]: 1 to 5 µM
- efficacy order on hedgehog signaling [3]: efficacy order is 25-OHC, 22(S)-OHC, cholesterol, 20α-OHC and followed with squalene

Compound: Cl.Cl.Clc1ccccc1CNC[C@H]1CC[C@H](CNCc2ccccc2Cl)CC1 [AY-9944, trans-1,4 bis-(2-dichlorobenzylaminomethyl) cyclohexane dihydrochloride, reference compound]
- developmental malformations of treated embryos [7]: HPE and partial cyclopia, as well as underdevelopment of the craniofacial bones and muscles, and failure of the heart tube to loop
